{"source": "patent US20100261711A1", "about": "“SELECTIVE ANTICONVULSANT AGENTS AND THEIR USES” (WiSys Technology Foundation, priority 2009, published 2010)", "assay_type_in_all_cases": "in vivo", "key": {"[1]": {"system": "MES-induced seizures", "assay": "Maximal electroshock test (MES), rats", "conditions": "Rat PO; for MES, animals protected/tested: 30 mg/kg", "protocol": "The benzodiazepine derivative compounds selective for GABAa receptor subunits were tested for the ability to suppress seizures in several standard rat and mouse models of epilepsy. […] The standard models incorporated into anticonvulsant screening include the maximal electroshock test (MES), the subcutaneous Metrazol test (scMet), and evaluations of toxicity (TOX). The data for each condition is presented as a ratio of either the number of animals protected or toxic (loss of locomotor activity) over the number of animals tested at a given time point and dose.\nThe MES is a model for generalized tonic-clonic seizures and provides an indication of a compound's ability to prevent seizure spread when all neuronal circuits in the brain are maximally active. These seizures are highly reproducible and are electrophysiologically consistent with human seizures. For all tests based on MES convulsions, 60 Hz of alternating current (50 mA in mice, 150 in rats) is delivered for by corneal electrodes which have been primed with an electrolyte solution containing an anesthetic agent (0.5% tetracaine HCL). For Test 1, mice are tested at various intervals following doses of 30, 100 and 300 mg/kg of test compound given by ip injection of a volume of 0.01 mL/g. In Test 2, rats are tested after a dose of 30 mg/kg (po) in a volume of 0.04 mL/g. Test 8 uses varying doses administered via i.p. injection, again in a volume of 0.04 ml/g. […] In Antiepileptic Drugs, Levy, R. H. M., Meldrum, B. S., Eds.; Raven Press: New York, pp 99-110, 1995b.)."}, "[2]": {"system": "minimal motor deficit (ataxia, abnormal gait)", "assay": "Toxicity (TOX), minimal motor deficit, rats", "conditions": "for TOX (Rotorod Test), animals toxic/tested: Rat IP, 100 mg/kg; for Tox, animals toxic/tested: 50 mg/kg"}, "[3]": {"system": "Metrazol-induced clonic seizures", "assay": "Subcutaneous Metrazol test (scMet), mice"}, "[4]": {"system": "6 Hz psychomotor seizure", "assay": "Minimal clonic seizure (6 Hz) test", "conditions": "Mice IP; for 6 Hz, animals protected/tested: 100 m/k; for ED50: Mus musculus, ip", "how_it_was_run": "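Mice dosed ip with test compound before 6 Hz corneal-type electrical stimulation lasting 3 s. Protection scored as absence of minimal clonic phase and stereotyped automatistic behaviour seen in untreated animals.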"}, "[5]": {"system": "MES-induced seizures", "assay": "Maximal electroshock test (MES), mice"}, "[6]": {"assay": "Toxicity (TOX), rotorod procedure, mice", "conditions": "mouse, in vivo; Mice IP, rotorod; read-out: TD50 TOX"}, "[7]": {"system": "minimal muscular or neurological impairment", "assay": "Toxicity (TOX), rotorod procedure, mice"}, "[8]": {"conditions": "Mice, 50 mg/kg PO (Mice IP), 0.5 hr"}, "[9]": {"conditions": "Mice, 50 mg/kg PO (Mice IP), 4.0 hr"}}, "note": "Like-named read-outs stand apart in the source and are kept apart here."}
{"smiles": "C#Cc1ccc2c(c1)C(c1ccccn1)=NCc1c(C(=O)OCC)ncn1-2", "note": "[Hz166 (106), 8-Acetylenyl-6-pyridin-2-yl-4H-benzo[f]imidazo[1,5-a][1,4]diazepine-3-carboxylic acid ethyl ester]", "values": [{"measurement": "ED50", "setting": "[1]", "result": "> 250", "unit": "mg/kg"}, {"measurement": "MES, animals protected/tested", "setting": "[1]; 0.5 h", "result": "1/4"}, {"measurement": "MES, animals protected/tested", "setting": "[1]; 1.0 h", "result": "0/4"}, {"measurement": "MES, animals protected/tested", "setting": "[1]; 2.0 h", "result": "0/4"}, {"measurement": "MES, animals protected/tested", "setting": "[1]; 4.0 h", "result": "0/4"}, {"measurement": "MES, animals protected/tested", "setting": "[1]; […]", "result": "0/4"}, {"measurement": "TOX (Rotorod Test), animals toxic/tested", "setting": "[2]; 0.5 hr", "result": "0/8"}, {"measurement": "TOX (Rotorod Test), animals toxic/tested", "setting": "[2]; 4.0 hr", "result": "0/8"}, {"measurement": "Tox, animals toxic/tested", "setting": "[2]; Rat PO, 0.5 h", "result": "0/4"}, {"measurement": "Tox, animals toxic/tested", "setting": "[2]; Rat PO, 1.0 h", "result": "0/4"}, {"measurement": "Tox, animals toxic/tested", "setting": "[2]; Rat PO, 2.0 h", "result": "0/4"}, {"measurement": "Tox, animals toxic/tested", "setting": "[2]; Rat PO, 4.0 h", "result": "0/4"}, {"measurement": "Tox, animals toxic/tested", "setting": "[2]; Rat PO, […]", "result": "0/4"}, {"measurement": "TD50 TOX", "setting": "[2]; Rat PO, abnormal gait", "result": ">500", "unit": "mg/kg"}, {"measurement": "motor impairment / sedative or locomotor effects", "setting": "[2]; rats, oral administration, up to 500 mg/kg", "result": "No motor impairment"}, {"measurement": "mice protected against scMet induced seizures", "setting": "[3]; Mice IP, 100 mg/kg, 0.5 hr", "result": 60, "unit": "%"}, {"measurement": "scMet, animals protected/tested", "setting": "[3]; Mice IP, 100 mg/kg, 0.5 hr", "result": "3/5"}, {"measurement": "scMet, animals protected/tested", "setting": "[3]; Mice IP, 100 mg/kg, 4.0 hr", "result": "0/1"}, {"measurement": "scMet, animals protected/tested", "setting": "[3]; [8]", "result": "4/4"}, {"measurement": "scMet, animals protected/tested", "setting": "[3]; [9]", "result": "0/4"}, {"measurement": "ED50", "setting": "[3]; Mus musculus, Mice IP", "result": 16.3, "unit": "mg/kg"}, {"measurement": "6 Hz, animals protected/tested", "setting": "[4]; 44 mA, 0.5 hr", "result": "1/4"}, {"measurement": "6 Hz, animals protected/tested", "setting": "[4]; 44 mA, 1.0 hr", "result": "1/4"}, {"measurement": "6 Hz, animals protected/tested", "setting": "[4]; 44 mA, 2.0 hr", "result": "0/4"}, {"measurement": "6 Hz, animals protected/tested", "setting": "[4]; 44 mA, 4 hr", "result": "0/4"}, {"measurement": "6 Hz, animals protected/tested", "setting": "[4]; 44 mA, […]", "result": "4/4"}, {"measurement": "ED50", "setting": "[4]; 32 mA, read-out: ED50 32 mA (6 Hz test)", "result": 25.8, "unit": "mg/kg"}, {"measurement": "ED50", "setting": "[4]; 44 mA, read-out: ED50 44 mA (6 Hz test)", "result": 115, "unit": "mg/kg"}, {"measurement": "MES, animals protected/tested", "setting": "[5]; Mice IP, 100 mg/kg, 0.5 hr", "result": "0/3"}, {"measurement": "MES, animals protected/tested", "setting": "[5]; Mice IP, 100 mg/kg, 4.0 hr", "result": "0/3"}, {"measurement": "MES, animals protected/tested", "setting": "[5]; [8]", "result": "1/4"}, {"measurement": "MES, animals protected/tested", "setting": "[5]; [9]", "result": "0/4"}, {"measurement": "ED50", "setting": "[5]; Mus musculus, Mice IP", "result": "> 300", "unit": "mg/kg"}, {"measurement": "TD50", "setting": "[6]", "result": "> 500", "unit": "mg/kg"}, {"measurement": "TOX (Rotorod Test), animals toxic/tested", "setting": "[7]; Mice IP, 100 mg/kg, 0.5 hr", "result": "0/8"}, {"measurement": "TOX (Rotorod Test), animals toxic/tested", "setting": "[7]; Mice IP, 100 mg/kg, 4.0 hr", "result": "0/4"}, {"measurement": "TD50 TOX", "setting": "[7]; Mice IP, rotorod", "result": "> 500", "unit": "mg/kg"}, {"measurement": "TOX (Rotorod Test), animals toxic/tested", "setting": "[7]; [8]", "result": "0/4"}, {"measurement": "TOX (Rotorod Test), animals toxic/tested", "setting": "[7]; [9]", "result": "0/4"}]}
